Measured values: patent US20230183243A1, “HETEROARYL DERIVATIVES AND PHARMACEUTICAL COMPOSITION COMPRISING SAME AS ACTIVE INGREDIENT” (VORONOI INC., priority 2019, published 2023)

What was measured:
[1] = test system: SHP-77; assay: Inhibition of proliferation of small cell lung cancer cells, CellTiter-Glo; type: cell-based; conditions: Homo sapiens, SHP77, 120 h; SHP-77, cultured for 5 days
Method: Specifically, the following test was performed to evaluate the inhibitory activity of the compound according to the present invention against the cell proliferation in the SCLC cells.
To check an inhibitory ability of cell growth in one SCLC cell line, a test was performed as follows. Cells were seeded in 180 μL of a culture broth at a density of 2,000 to 3,000 cells/well in a white clear bottom 96-well plate (Corning) according to the growth ability of each cell, and then cultured for 24 hours under conditions of 5% CO2 and 37° C. Thereafter, the compound was prepared by diluting a 10 mM stock solution three-fold with 100% DMSO at a total of 12 concentrations so that a peak concentration of the compound was in a range of 10 mM to 0.05 μM, and the diluted compound was then diluted in each cell culture medium so that a final concentration of the compound was in a range of 100 μM to 0.5 nM. 20 μL of a diluted solution diluted with a medium was added to the cell solution in which cells were seeded in the 96-well plate on the previous day so that a final concentration of the diluted solution was in a range of 10 μM to 0.05 nM. Each of the cells was cultured for 5 days. To check cell viability, a mixture provided in aCellTiter-Glo® Luminescent Cell Viability Assay Kit (Promega) was added to each of the cultured cell media, and cultured for another 10 minutes under a condition of 37° C. Then, a degree of luminescence (fluorescence) was measured. A degree of inhibition of the cell growth according to the treatment concentration of each of the compounds was calculated based on the fluorescence of the solvent control cells which were not treated with the compound. In this case, the concentration of each of the compounds inhibiting 50% of the cell growth was determined to be a GI50 (nM) value, and calculated using Prism (Version 7.01; GraphPad) software.

[2] = target: T1, TTK (Homo sapiens, UniProt P33981); assay: TTK enzyme activity, ADP-Glo kinase assay; type: biochemical; design: purchased SignalChem T20-10G; conditions: purified human TTK, ATP 10 μM, 25° C., 2 hours
T1 sequence (P33981 1-857): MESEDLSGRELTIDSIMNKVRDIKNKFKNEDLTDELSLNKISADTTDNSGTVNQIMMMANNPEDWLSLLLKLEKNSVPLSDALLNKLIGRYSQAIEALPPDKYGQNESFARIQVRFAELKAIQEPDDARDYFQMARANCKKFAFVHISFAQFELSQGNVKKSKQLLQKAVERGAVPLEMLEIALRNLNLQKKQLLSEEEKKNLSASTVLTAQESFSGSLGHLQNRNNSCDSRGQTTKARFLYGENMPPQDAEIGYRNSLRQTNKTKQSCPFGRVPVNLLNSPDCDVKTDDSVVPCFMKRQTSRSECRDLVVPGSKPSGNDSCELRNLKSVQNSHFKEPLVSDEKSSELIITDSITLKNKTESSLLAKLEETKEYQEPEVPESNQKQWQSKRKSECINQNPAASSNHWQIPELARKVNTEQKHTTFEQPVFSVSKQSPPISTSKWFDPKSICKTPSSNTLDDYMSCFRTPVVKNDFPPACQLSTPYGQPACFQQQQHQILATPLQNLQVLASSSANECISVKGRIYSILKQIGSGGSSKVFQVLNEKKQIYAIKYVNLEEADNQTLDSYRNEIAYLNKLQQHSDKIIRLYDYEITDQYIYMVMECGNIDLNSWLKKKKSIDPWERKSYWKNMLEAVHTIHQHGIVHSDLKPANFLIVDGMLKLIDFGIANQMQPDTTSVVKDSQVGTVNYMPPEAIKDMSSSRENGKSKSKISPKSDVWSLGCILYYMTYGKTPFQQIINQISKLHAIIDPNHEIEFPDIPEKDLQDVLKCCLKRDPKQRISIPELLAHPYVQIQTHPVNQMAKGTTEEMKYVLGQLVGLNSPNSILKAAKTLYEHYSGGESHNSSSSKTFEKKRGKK
Summary of the method: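 Purified human TTK (25 ng) incubated with 10 μM ATP and substrate (0.2 μg) for 2 h at 25 °C in Tris-HCl pH 7.4, MgCl2, BSA, DTT buffer. ADP formation read by ADP-Glo; inhibition calculated against untreated solvent control.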

[3] = test system: MDA-MB-231 cells; assay: Inhibition of proliferation of triple-negative breast cancer cells, CellTiter-Glo; type: cell-based; conditions: Homo sapiens, 120 h; MDA-MB-231, cultured for 5 days
Summary of the method: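 MDA-MB-231 cells pre-cultured 24 h (5% CO2, 37 °C), then exposed to compound for 5 days at 12 three-fold dilutions, final 10 μM to 0.05 nM. Viability read by CellTiter-Glo luminescence after 10 min at 37 °C; growth inhibition calculated relative to untreated solvent-control cells.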

| GI50 [1] [nM] | IC50 [2] [nM] | GI50 [3] [nM] | SMILES |
| --- | --- | --- | --- |
| < 100 | < 50 | < 100 | Cn1nccc1-c1ccc(Nc2nc(NC3CCOC(C)(C)C3)c3c(C#N)c[nH]c3n2)c2c1OCCO2 (stereo not drawn) [Example 109, 4-((2,2-dimethyltetrahydro-2H-pyran-4-yl)amino)-2-((8-(1-methyl-1H-pyrazol-5-yl)-2,3-dihydrobenzo[b][1,4]dioxin-5-yl)amino)-7H-pyrrolo[2,3-d] pyrimidine-5-carbonitrile] |
| < 100 | < 50 | < 100 | COc1cc(-c2ccnn2C)ccc1Nc1nc(NC2CCC(F)(F)C2)c2c(C#N)c[nH]c2n1 (stereo not drawn) [Example 110, 4-((3,3-difluorocyclopentyl)amino)-2-((2-methoxy-4-(l-methyl-1H-pyrazol-5-yl)phenyl)amino)-7H-pyrrolo[2,3-d] pyrimidine-5-carbonitrile] |
| < 100 | < 50 | < 100 | COc1cc(-c2ccnn2C)ccc1Nc1nc(C2CC2)c2c(C#N)c[nH]c2n1 [Example 111, 4-cyclopropyl-2-((2-methoxy-4-(1-methyl-1H-pyrazol-5-yl)phenyl)amino)-7H-pyrrolo[2,3-d] pyrimidine-5-carbonitrile] |
| < 100 | < 50 | 100 to 1000 | Cn1nccc1-c1ccc(Nc2nc(C3CC3)c3c(C#N)c[nH]c3n2)c2c1OCCO2 [Example 112, 4-cyclopropyl-2-((8-(1-methyl-1H-pyrazol-5-yl)-2,3-dihydrobenzo[b][1,4]dioxin-5-yl)amino)-7H-pyrrolo[2,3-d] pyrimidine-5-carbonitrile] |
| 100 to 1000 | 50 to 200 | 100 to 1000 | COc1cc(-c2ccnn2C)ccc1Nc1nc(NC2CCCC2)c2cc[nH]c2n1 [Example 113, N^4-cyclopentyl-N^2-(2-methoxy-4-(1-methyl-1H-pyrazol-5-yl)phenyl)-7H-pyrrolo[2,3-d] pyrimidine-2,4-diamine] |
| 100 to 1000 | < 50 | 100 to 1000 | Cn1nccc1-c1ccc(Nc2nc(NC3CCCC3)c3cc[nH]c3n2)c2c1OCCO2 [Example 114, N^4-cyclopentyl-N^2-(8-(1-methyl-1H-pyrazol-5-yl)-2,3-dihydrobenzo[b][1,4]dioxin-5-yl)-7H-pyrrolo[2,3-d] pyrimidine-2,4-diamine] |
| < 100 | < 50 | < 100 | COc1cc(-c2ccnn2C)ccc1Nc1nc(NC2CCOC(C)(C)C2)c2c(C#N)c[nH]c2n1 (stereo not drawn) [Example 115, 4-((2,2-dimethyltetrahydro-2H-pyran-4-yl)amino)-2-((2-methoxy-4-(1-methyl-1H-pyrazol-5-yl)phenyl)amino)-7H-pyrrolo[2,3-d] pyrimidine-5-carbonitrile] |
| < 100 | < 50 | < 100 | Cn1nccc1-c1ccc(Nc2nc(NC3CCC(F)(F)C3)c3c(C#N)c[nH]c3n2)c2c1OCCO2 (stereo not drawn) [Example 116, 4-((3,3-difluorocyclopentyl)amino)-2-((8-(1-methyl-1H-pyrazol-5-yl)-2,3-dihydrobenzo[b][1,4]dioxin-5-yl)amino)-7H-pyrrolo[2,3-d] pyrimidine-5-carbonitrile] |
| < 100 | < 50 | < 100 | COc1cc(-c2nncn2C)ccc1Nc1nc(NC2CCOCC2)c2c(C(F)(F)F)c[nH]c2n1 [Example 117, N^2-(2-methoxy-4-(4-methyl-4H-1,2,4-triazol-3-yl)phenyl)-N^4-(tetrahydro-2H-pyran-4-yl)-5-(trifluoromethyl)-7H-pyrrolo[2,3-d] pyrimidine-2,4-diamine] |
| < 100 | < 50 | < 100 | COc1cc(-c2cnn(C)c2)ccc1Nc1nc(NC2CCOCC2)c2c(C(F)(F)F)c[nH]c2n1 [Example 118, N^2-(2-methoxy-4-(1-methyl-1H-pyrazol-4-yl)phenyl)-N^4-(tetrahydro-2H-pyran-4-yl)-5-(trifluoromethy1)-7H-pyrrolo[2,3-d] pyrimidine-2,4-diamine] |
| < 100 | < 50 | < 100 | COc1cc(Nc2nc(NC3CCOCC3)c3c(C#N)c[nH]c3n2)ccc1-c1ccnn1C [Example 119, 2-((3-methoxy-4-(1-methyl-1H-pyrazol-5-yl)phenyl)amino)-4-((tetrahydro-2H-pyran-4-yl)amino)-7H-pyrrolo[2,3-d] pyrimidine-5-carbonitrile] |
| 100 to 1000 | 50 to 200 | 100 to 1000 | COc1cc(Nc2nc(NC3CCCC3)c3c(C#N)c[nH]c3n2)ccc1-c1ccnn1C [Example 120, 4-(cyclopentylamino)-2-((3-methoxy-4-(1-methyl-1H-pyrazol-5-yl)phenyl)amino)-7H-pyrrolo[2,3-d] pyrimidine-5-carbonitrile] |
| < 100 | < 50 | < 100 | COc1cc(Nc2nc(NC3CCCCC3)c3c(C#N)c[nH]c3n2)ccc1-c1ccnn1C [Example 121, 4-(cyclohexylamino)-2-((3-methoxy-4-(1-methyl-1H-pyrazol-5-yl)phenyl)amino)-7H-pyrrolo[2,3-d] pyrimidine-5-carbonitrile] |
| < 100 | < 50 | < 100 | COc1cc(-c2ccnn2C)c(F)cc1Nc1nc(NC2CCOCC2)c2c(C#N)c[nH]c2n1 [Example 122, 2-((5-fluoro-2-methoxy-4-(1-methyl-1H-pyrazol-5-yl)phenyl)amino)-4-((tetrahydro-2H-pyran-4-yl)amino)-7H-pyrrolo[2,3-d] pyrimidine-5-carbonitrile] |
| 100 to 1000 | 50 to 200 | > 1000 | COc1cc(-c2c(C)noc2C)c(F)cc1Nc1nc(NC2CCCCC2)c2c(C#N)c[nH]c2n1 [Example 123, 4-(cyclohexylamino)-2-((4-(3,5-dimethylisoxazol-4-yl)-5-fluoro-2-methoxyphenyl)amino)-7H-pyrrolo[2,3-d] pyrimidine-5-carbonitrile] |
| < 100 | < 50 | < 100 | COc1cc(-c2cnn(C)c2)c(F)cc1Nc1nc(NC2CCOCC2)c2c(C#N)c[nH]c2n1 [Example 124, 2-((5-fluoro-2-methoxy-4-(1-methyl-1H-pyrazol-4-yl)phenyl)amino)-4-((tetrahydro-2H-pyran-4-yl)amino)-7H-pyrrolo[2,3-d] pyrimidine-5-carbonitrile] |
| 100 to 1000 | < 50 | < 100 | COc1cc(-c2cnn(C)c2)c(F)cc1Nc1nc(NC2CCCC2)c2c(C#N)c[nH]c2n1 [Example 125, 4-(cyclopentylamino)-2-((5-fluoro-2-methoxy-4-(1-methyl-1H-pyrazol-4-yl)phenyl)amino)-7H-pyrrolo[2,3-d] pyrimidine-5-carbonitrile] |
| > 1000 | < 50 | > 1000 | COc1cc(-c2cnn(C)c2)c(F)cc1Nc1nc(NC2CCCCC2)c2c(C#N)c[nH]c2n1 [Example 126, 4-(cyclohexylamino)-2-((5-fluoro-2-methoxy-4-(1-methyl-1H-pyrazol-4-yl)phenyl)amino)-7H-pyrrolo[2,3-d] pyrimidine-5-carbonitrile] |
